Experimental data from patent publication US5885994A, “Tetrahydroquinoxaline dopamine D4 receptor antagonists” (Warner-Lambert Company, priority 1998, dated 1999).

Target: T1, human D4.2 receptor (Homo sapiens, UniProt P21917, DEL265-296)
T1 construct: expressed in transfected cells; host or cells: CHO K1 cells
T1 sequence (P21917 with tags, fused parts or gaps DEL265-296): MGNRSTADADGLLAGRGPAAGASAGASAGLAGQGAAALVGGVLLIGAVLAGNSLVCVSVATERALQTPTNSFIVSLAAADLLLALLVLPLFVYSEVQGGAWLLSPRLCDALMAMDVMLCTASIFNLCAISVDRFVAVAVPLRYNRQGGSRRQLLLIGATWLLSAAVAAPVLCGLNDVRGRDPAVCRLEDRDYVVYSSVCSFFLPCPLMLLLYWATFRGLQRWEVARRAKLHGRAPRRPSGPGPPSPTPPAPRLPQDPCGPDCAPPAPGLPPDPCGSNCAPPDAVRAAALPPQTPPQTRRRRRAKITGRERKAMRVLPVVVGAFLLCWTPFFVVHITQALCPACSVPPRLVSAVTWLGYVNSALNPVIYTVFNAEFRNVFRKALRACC
Assay: Inhibition of [3H]spiperone binding to human dopamine D4.2 receptors
Details: human D4.2, CHO K1 membranes
Text: A cell line expressing human dopamine D2 (Long form) receptors was purchased from Oregon Health Sciences University, Portland, Oreg. The D2 receptor cDNA was subcloned into an expression vector, pRc/CMV. The plasmids were transfected by electroporation into CHO K1 cells. A single stable transfectant, resistant to the antibiotic 418, was isolated and selected for use in the binding studies. For D4 binding, CHO K1 cells stably transfected to express the human recombinant dopamine D4.2 receptor subtype, as described by Shih, et al., "The expression and functional characterization of human dopamine D4.2 receptor in CHO K1 cells," Soc. Neurosci., 1995;21(Part 1):621.
CHO K1 cells expressing either human D2 and D4.2 receptors were grown in 162 cm^2 culture flasks in F12 medium (Gibco Laboratories, Grand Island, N.Y.) supplemented with 10% fetal bovine serum (FBS, Hyclone, Logan, Utah) in an atmosphere of 5% CO2 /95% air at 37° C. Cells were grown until confluent, after which growth medium was removed and replaced with 0.02% ethylene diamine tetracetate (EDTA) in a phosphate-buffered saline solution (Sigma Chemical Co., St. Louis, Mo.) and scraped from the flasks. The cells were centrifuged at about 1000×g for 10 minutes at […] and then resuspended in TEM buffer (25 mM Tris-HCl, pH 7.4, 5 mM EDTA, and 6 mM MgCl2) for D2 or the D4.2 buffer (50 mM Tris-HCl, pH 7.4, 5 mM EDTA, 1.5 mM CaCl2, 5 mM KCl, and 120 mM NaCl) and homogenized. The membranes were pelleted by centrifugation at 20,000×g at […] for 20 minutes. Then the pellets were resuspended in appropriate buffer at 1 mL/flask and stored at -70° C. until used in the receptor binding assay.
Receptor Binding Assays: D2,D4.2 Dopamine Receptors
After 60 minutes incubation at 25° C., the incubations were terminated by rapid filtration through Whatmann F/B lass fibre filters (soaked for 1 hour in 0.5% polyethylenimine) on a cell harvester, with three washes of 1 mL ice-cold buffer. Individual filter disks containing the bound ligand were placed in counting vials with 4 mL of scintillation fluid (Ready Gel, Beckman Instrument Inc., Fullerton, Calif.) and then counted in a Beckman LS-6800 liquid scintillation counter at an efficiency of 45%. Nonspecific binding was defined in presence of 1 mM of haloperidol.
Saturation and competition binding data were analyzed using an iterative nonlinear least-square curve-fitting Ligand program. In competition experiments, apparent Ki values were calculated from IC50 values by method of Cheng and Prusoff, "Relationship between the inhibition constant (Ki) and the concentration of inhibitor which causes 50% inhibition (IC50) of an enzymatic reaction," Biochem. Pharmacol., 1973;22:3099-3108. Experimental compounds were made up as stock solutions in dimethyl sulfoxide (DMSO). […] Each observation was carried out in triplicate. To allow these calculations, Ki values were measured for the interaction of various ligands with the receptor. […]

An IC50 of 2.8 nM was found for `Cc1ccc(N2CCN(Cc3ccc4c(c3)NCCN4)CC2)cc1C` [Example 2, 6-[4-(3,4-Dimethylphenyl)piperazin-1-ylmethyl]-1,2,3,4-tetrahydroquinoxaline] in this work.
